The species entered for test [1] is Mus musculus. Kind of test: animal or person.
Description: Effective dose against administration in mice
In test [2] the target is Muscarinic acetylcholine receptor. It counts as cell membranes, Membrane.
Description: Inhibition of [3H]quinuclidinyl benzilate (QNB) binding from rat forebrain membranes in the absence of Zn
Test [3] concerns the target Sodium-dependent noradrenaline transporter (Homo sapiens, UniProt P23975).
Description: Inhibitory activity against norepinephrine (NE) uptake in rat whole brain synaptosome preparation
For test [4], the system named is Mus musculus. Kind of test: Antagonistic activity against Scopolamine induced behavioral deficits in mice at dose 0.02 mg/kg sc. As to conditions: route subcutaneous. It counts as functional.
Test [5] concerns the target T1, Acetylcholinesterase (Rattus norvegicus, UniProt P37136).
T1 sequence (P37136 whole entry): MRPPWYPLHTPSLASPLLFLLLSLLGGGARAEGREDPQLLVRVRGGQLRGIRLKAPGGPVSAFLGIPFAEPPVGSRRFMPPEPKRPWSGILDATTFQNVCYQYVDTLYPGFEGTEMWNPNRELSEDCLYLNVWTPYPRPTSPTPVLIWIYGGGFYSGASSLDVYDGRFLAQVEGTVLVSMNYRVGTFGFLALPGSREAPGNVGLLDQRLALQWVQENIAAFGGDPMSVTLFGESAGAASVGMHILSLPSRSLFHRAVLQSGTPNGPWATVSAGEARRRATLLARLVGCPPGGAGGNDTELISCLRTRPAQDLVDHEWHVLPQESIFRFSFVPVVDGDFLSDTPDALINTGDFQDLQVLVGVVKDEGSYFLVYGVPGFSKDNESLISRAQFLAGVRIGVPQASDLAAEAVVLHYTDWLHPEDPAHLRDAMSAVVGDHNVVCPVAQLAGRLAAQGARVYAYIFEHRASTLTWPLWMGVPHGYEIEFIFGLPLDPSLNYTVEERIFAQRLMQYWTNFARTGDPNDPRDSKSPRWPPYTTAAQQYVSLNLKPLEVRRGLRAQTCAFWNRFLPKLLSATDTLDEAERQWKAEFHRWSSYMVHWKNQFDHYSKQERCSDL
Description: Inhibitory activity against acetylcholinesterase in rat striatal preparation

Test [6] addresses T2, Adrenergic receptor alpha-1 (Rattus norvegicus, UniProt P15823+P23944+P43140).
T2 sequence (P15823 whole entry): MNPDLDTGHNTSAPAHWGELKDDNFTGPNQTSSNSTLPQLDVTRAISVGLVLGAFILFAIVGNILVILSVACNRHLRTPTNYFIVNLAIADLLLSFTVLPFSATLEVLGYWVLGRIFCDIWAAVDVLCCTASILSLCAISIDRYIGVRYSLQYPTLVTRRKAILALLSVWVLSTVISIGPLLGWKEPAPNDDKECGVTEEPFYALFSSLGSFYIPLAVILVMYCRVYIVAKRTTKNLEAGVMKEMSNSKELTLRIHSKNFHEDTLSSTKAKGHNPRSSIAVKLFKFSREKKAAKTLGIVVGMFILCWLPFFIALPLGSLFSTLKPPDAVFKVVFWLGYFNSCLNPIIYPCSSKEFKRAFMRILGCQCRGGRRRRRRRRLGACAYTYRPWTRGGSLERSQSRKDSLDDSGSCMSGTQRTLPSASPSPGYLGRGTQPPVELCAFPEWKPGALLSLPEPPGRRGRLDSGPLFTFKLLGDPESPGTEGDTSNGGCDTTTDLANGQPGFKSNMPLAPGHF
T2 sequence (P23944 whole entry): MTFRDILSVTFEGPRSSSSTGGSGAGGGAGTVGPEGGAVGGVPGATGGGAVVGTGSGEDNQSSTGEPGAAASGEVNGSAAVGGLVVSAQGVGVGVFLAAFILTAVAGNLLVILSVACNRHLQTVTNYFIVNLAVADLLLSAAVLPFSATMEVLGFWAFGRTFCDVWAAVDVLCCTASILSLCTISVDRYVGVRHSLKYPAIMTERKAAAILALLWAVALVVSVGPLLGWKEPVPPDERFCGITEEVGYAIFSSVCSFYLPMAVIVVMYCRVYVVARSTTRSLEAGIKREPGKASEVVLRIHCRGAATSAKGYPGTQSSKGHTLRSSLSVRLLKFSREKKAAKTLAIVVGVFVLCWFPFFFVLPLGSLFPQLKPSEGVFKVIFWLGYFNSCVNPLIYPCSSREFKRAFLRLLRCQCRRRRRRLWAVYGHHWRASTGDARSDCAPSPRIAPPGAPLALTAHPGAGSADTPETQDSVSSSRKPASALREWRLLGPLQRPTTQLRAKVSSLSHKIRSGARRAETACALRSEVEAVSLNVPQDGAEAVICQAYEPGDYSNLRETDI
T2 sequence (P43140 whole entry): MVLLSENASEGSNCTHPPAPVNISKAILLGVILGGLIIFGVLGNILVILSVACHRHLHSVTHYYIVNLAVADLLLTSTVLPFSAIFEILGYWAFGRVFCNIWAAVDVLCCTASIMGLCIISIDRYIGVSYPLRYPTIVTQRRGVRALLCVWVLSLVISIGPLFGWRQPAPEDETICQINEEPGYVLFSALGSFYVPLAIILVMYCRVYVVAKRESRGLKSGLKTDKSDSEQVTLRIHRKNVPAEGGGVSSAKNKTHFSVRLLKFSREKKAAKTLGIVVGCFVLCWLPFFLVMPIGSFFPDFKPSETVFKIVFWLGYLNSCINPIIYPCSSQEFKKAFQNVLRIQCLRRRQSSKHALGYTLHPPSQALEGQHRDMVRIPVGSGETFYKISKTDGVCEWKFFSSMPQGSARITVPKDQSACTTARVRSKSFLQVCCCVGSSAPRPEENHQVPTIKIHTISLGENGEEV
Kind of test: Inhibitory activity against [3H]WB-4101 binding to Alpha-1 adrenergic receptor in rat whole brain membrane. It counts as cell membranes.

The test system of test [7] is Mus musculus. Kind of test: Antagonistic activity against Scopolamine induced behavioral deficits in mice at dose 0.08 mg/kg sc. It counts as functional. As to conditions: route subcutaneous.
In test [8] the target is Muscarinic acetylcholine receptor. Format: cell membranes, Membrane. The source holds these as a separate data set.
Description: Inhibition of [3H]quinuclidinyl benzilate (QNB) binding from rat forebrain membranes in the presence of Zn

Sodium-dependent noradrenaline transporter, sequence (P23975 whole entry): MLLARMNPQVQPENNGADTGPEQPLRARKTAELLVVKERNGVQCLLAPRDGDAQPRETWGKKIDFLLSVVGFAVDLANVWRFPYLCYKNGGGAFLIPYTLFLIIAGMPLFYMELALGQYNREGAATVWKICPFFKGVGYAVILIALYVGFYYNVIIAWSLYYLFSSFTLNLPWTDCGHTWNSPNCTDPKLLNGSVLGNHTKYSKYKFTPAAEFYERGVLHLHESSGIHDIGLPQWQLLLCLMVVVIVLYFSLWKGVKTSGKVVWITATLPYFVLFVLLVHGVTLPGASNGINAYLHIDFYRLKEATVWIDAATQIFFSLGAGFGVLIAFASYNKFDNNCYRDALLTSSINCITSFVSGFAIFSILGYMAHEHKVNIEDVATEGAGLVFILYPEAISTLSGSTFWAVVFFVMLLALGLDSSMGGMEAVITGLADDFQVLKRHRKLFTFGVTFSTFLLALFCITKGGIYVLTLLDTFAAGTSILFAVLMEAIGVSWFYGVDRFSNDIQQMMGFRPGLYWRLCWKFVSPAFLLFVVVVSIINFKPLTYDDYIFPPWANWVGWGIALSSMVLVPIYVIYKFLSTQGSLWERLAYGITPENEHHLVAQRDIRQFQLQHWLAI

`CN(c1ccncc1)n1ccc2ccccc21`: the ED50 in test [1] was 3.5 mg/kg. For the same compound, the IC50 in test [2] was 9 µM; in test [3], 1 µM; in test [5], over 100 µM; in test [6] it was 1.2 µM; in test [8], 5.1 µM. Moreover, the Response in test [4] and in test [7] was 33% each time.

In test [1], `c1ccc2c(c1)ccn2Nc1ccncc1` had an ED50 of 3 mg/kg. In addition, the IC50 in test [2] was 40 µM; in test [3], 2.5 µM; in test [5], over 100 µM; in test [6], 0.51 µM; in test [8], 16 µM. Moreover, the Response was 27% in test [4] and 20% in test [7].

For the compound `CCCN(c1ccncc1)n1ccc2ccccc21` [BESIPIRDINE], it took a dose of 3.1 mg/kg to reach the 50% effect level in test [1] (ED50). Further, the IC50 in test [2] was 3 µM; in test [3], 0.43 µM; in test [5], over 100 µM; in test [6], 10 µM; in test [8], 0.94 µM. Further, the Response in test [4] was found to be 24%; in test [7], 33%.

One may read the ED50 as the dose at which the effect has come halfway, by size or by number of responders. The low end stands for an effect at a small dose, the high end for a need for a large dose. Usually IC50 stands for the concentration at which inhibition is half-maximal.

The values are drawn from ChEMBL document CHEMBL1129670, “Synthesis and structure-activity relationships of N-propyl-N-(4-pyridinyl)-1H-indol-1-amine (besipirdine) and related analogs as potential therapeutic agents for Alzheimer's disease” (J Med Chem, 1996).
